Results published in ChEMBL document CHEMBL1201862, “PubChem BioAssay data set” (2004).
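Briefly, cells in 96-well plates were exposed to five compound concentrations for 48 h, and endpoints were estimated by linear interpolation. GI50: concentration for 50% inhibition of growth.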 Active and inactive are the calls of the source. Rule as the data show it: active = GI50 up to about 1.1 µM and inactive = higher.

Tests used:
Assay in all cases: NCI-60 cell line screen, 48 h
SK-MEL-2 = tested on: SK-MEL-2
A549 = tested on: A549
786-0 = tested on: 786-0
A498 = tested on: A498
EKVX = tested on: EKVX
BT-549 = tested on: BT-549
OVCAR-3 = tested on: OVCAR-3
K562 = tested on: K562
LOX IMVI = tested on: LOX IMVI
DU-145 = tested on: DU-145
CCRF-CEM = tested on: CCRF-CEM
MDA-MB-435 = tested on: MDA-MB-435
ACHN = tested on: ACHN
MDA-MB-231 = tested on: MDA-MB-231
MOLT-4 = tested on: MOLT-4
KM12 = tested on: KM12
HCT-116 = tested on: HCT-116
SK-MEL-5 = tested on: SK-MEL-5
SNB-75 = tested on: SNB-75
OVCAR-8 = tested on: OVCAR-8
SF-268 = tested on: SF-268
NCI/ADR-RES = tested on: NCI/ADR-RES
UACC-257 = tested on: UACC-257
Malme-3M = tested on: Malme-3M
NCI-H460 = tested on: NCI-H460
NCI-H522 = tested on: NCI-H522
HT-29 = tested on: HT-29
MCF7 = tested on: MCF7
HCC 2998 = tested on: HCC 2998
NCI-H226 = tested on: NCI-H226
HCT-15 = tested on: HCT-15
HOP-92 = tested on: HOP-92
MDA-N = tested on: MDA-N
SNB-19 = tested on: SNB-19
TK-10 = tested on: TK-10
U-251 = tested on: U-251
HL-60 = tested on: HL-60
SF-539 = tested on: SF-539
SN12C = tested on: SN12C
NCI-H23 = tested on: NCI-H23
SK-OV-3 = tested on: SK-OV-3
OVCAR-4 = tested on: OVCAR-4
CAKI-1 = tested on: CAKI-1
M14 = tested on: M14
HOP-62 = tested on: HOP-62
RXF 393 = tested on: RXF 393
SW-620 = tested on: SW-620
SF-295 = tested on: SF-295
COLO 205 = tested on: COLO 205
OVCAR-5 = tested on: OVCAR-5
SK-MEL-28 = tested on: SK-MEL-28
UO-31 = tested on: UO-31
PC-3 = tested on: PC-3
IGROV-1 = tested on: IGROV-1

For `COC(=O)C1=CN(C2CCCCC2)C2(c3ccccc3)c3ccccc3C(=O)OC(=O)C12` (centres undefined), the GI50 (SK-MEL-2) was > 100 µM (inactive), the GI50 (A549) was 95.5 µM (inactive) and the GI50 (786-0) was > 100 µM (inactive). For the same molecule, the GI50 (A498) was > 100 µM (inactive), the GI50 (EKVX) was > 100 µM (inactive) and the GI50 (BT-549) was > 100 µM (inactive). The GI50 (OVCAR-3) was > 100 µM (inactive), the GI50 (K562) was 20.1 µM (inactive) and the GI50 (LOX IMVI) was 42.3 µM (inactive). The GI50 (DU-145) was > 100 µM (inactive), the GI50 (CCRF-CEM) was > 100 µM (inactive) and the GI50 (MDA-MB-435) was 46.5 µM (inactive). For the same molecule, the GI50 (ACHN) was > 100 µM (inactive), the GI50 (MDA-MB-231) was 34.7 µM (inactive) and the GI50 (MOLT-4) was 10.6 µM (inactive). For the same molecule, the GI50 (KM12) was > 100 µM (inactive), the GI50 (HCT-116) was 64.9 µM (inactive) and the GI50 (SK-MEL-5) was > 100 µM (inactive). For the same molecule, the GI50 (SNB-75) was > 100 µM (inactive), the GI50 (OVCAR-8) was > 100 µM (inactive) and the GI50 (SF-268) was > 100 µM (inactive). For the same molecule, the GI50 (NCI/ADR-RES) was > 100 µM (inactive), the GI50 (UACC-257) was 49.2 µM (inactive) and the GI50 (Malme-3M) was > 100 µM (inactive). For the same molecule, the GI50 (NCI-H460) was 80.2 µM (inactive), the GI50 (NCI-H522) was > 100 µM (inactive) and the GI50 (HT-29) was 62.2 µM (inactive). The GI50 (MCF7) was > 100 µM (inactive), the GI50 (HCC 2998) was 27 µM (inactive) and the GI50 (NCI-H226) was > 100 µM (inactive). The GI50 (HCT-15) was over 100 µM, the GI50 (HOP-92) was 39 µM (inactive) and the GI50 (MDA-N) was 58.5 µM (inactive). The GI50 (SNB-19) was > 100 µM (inactive), the GI50 (TK-10) was > 100 µM (inactive) and the GI50 (U-251) was 99.3 µM (inactive). For the same molecule, the GI50 (HL-60) was 15.2 µM (inactive), the GI50 (SF-539) was > 100 µM (inactive) and the GI50 (SN12C) was > 100 µM (inactive). For the same molecule, the GI50 (NCI-H23) was > 100 µM (inactive), the GI50 (SK-OV-3) was > 100 µM (inactive) and the GI50 (OVCAR-4) was > 100 µM (inactive). The GI50 (CAKI-1) was 46.8 µM (inactive), the GI50 (M14) was > 100 µM (inactive) and the GI50 (HOP-62) was 90.8 µM (inactive). For the same molecule, the GI50 (RXF 393) was 23 µM (inactive), the GI50 (SW-620) was > 100 µM (inactive) and the GI50 (SF-295) was > 100 µM (inactive). For the same molecule, the GI50 (COLO 205) was 72.8 µM (inactive), the GI50 (OVCAR-5) was > 100 µM (inactive) and the GI50 (SK-MEL-28) was > 100 µM (inactive). For the same molecule, the GI50 (UO-31) was > 100 µM (inactive), the GI50 (PC-3) was 71.6 µM (inactive) and the GI50 (IGROV-1) was > 100 µM (inactive).
